Patent US10246498B2, “Genetically encoded histone reporter allele constructs” (THE JOHNS HOPKINS UNIVERSITY, priority 2014, dated 2019)
Entries after “also recorded” stand apart in the source; their conditions may differ.

Assays:
[1] = tested on: H3K4 trimethylation activity in MEFs; assay: H3K4me3 indicator in murine embryonic fibroblasts from Kmt2d+/βGeo and Kmt2d+/+ mice; type: cell-based, mouse
From the text: An H3K4 trimethylation reporter was also created (FIG. 5B). This reporter is based on the H3 tail on one end and the TBP associated factor III (TAFIII) […] on the other end; the TAFIII […] only identifies and binds to trimethylated K4 on H3. When the H3K4 site gets trimethylated, the TAFIII […] can bind to the modified H3 tail and bring the two parts of the separated GFP in close proximity. The activity of the epigenetic modification system can be quantified through fluorescence.
Epigenetic reporter alleles were synthesized (OriGene, Rockville, Md.) using published sequences for component elements (Baird et al. (1999) Proc. Natl. Acad. Sci. 96:11241-6; Souslova et al. (2007) BMC Biotechnol. 7:37). Single nucleotide mutations were created using the QuickChange Lightening kit (Agilent Technologies Inc, Santa Clara, Calif.). For H4ac indicator, K5R, K8R, K12R, K16R and K20R (MUT indicator) were introduced. For H3K4me3 indicator, K4Q and D890A/W891A and M882A (three separate constructs) were introduced. For transient transfections, mouse embryonic fibroblasts (see below) were transfected with Fugene HD (Promega, Madison, Wis.), 48 hours prior to FACS. […] For drug stimulation, drug was added to the media 24 hours prior to FACS. For stable transfections in T293 (American Type Culture Collection) cells, 10 μg/ml of Blastocidin (Life Technologies, Carlsbad, Calif.) was added to the media for several weeks. For stable transfection in MEFs, the reporter was transferred to a ViraPower Lentiviral Expression System (Life Technologies, Carlsbad, Calif.). After selection with Blastocidin, the drug of interest was added 24 hours prior to FACS. SAHA, AR-42 and MS275 were purchased from Selleck (Selleck Chemicals, Houston, Tex.). […] FACS data were analyzed using FlowJo (Tree Star Inc, Ashland, Oreg.). A plasmid expressing HDAC3 was acquired from Addgene (Cambridge, Mass., plasmid 13819) and transfected into a stable cell line carrying the H4 acetyl reporter allele.

[2] = tested on: DCX positive cells in the GCL; assay: Doublecortin (DCX) expression in the GCL (neurogenesis) after oral AR-42; type: in vivo, mouse
From the text: Kmt2d^+/βGeo mice, also named Mll2Gt^(RRt024)Byg, were acquired from Bay Genomics (University of California). All experimental mice were on a mixed C57BL/6J and 129/SvEv background. Expected Mendelian ratios were observed when heterozygous animals were bred to wild-type. In heterozygous crosses, however, there was uniform embryonic lethality of homozygotes by ED12, the earliest developmental stage assayed. For treatment with AR-42, mice were orally gavaged daily with drug (Selleck Chemicals, Houston, Tex.) solubilized in vehicle (0.5% methylcellulose, 0.1% Tween-80, water) or with vehicle alone. Drug delivery information was kindly provided by Drs. Chen and Kulp from Ohio State University (Huang et al. (2011) Mol. Pharmacol. 79:197-20619). Drug was administered for 14 days and mice were sacrificed on day 15. Morris water maze testing was initiated at day 7 and a dose of 10 mg/kg/day was used for these studies. For quantification of DCX positive cells, doses of 0, 5, 10 and 25 mg/kg/day were used. Genotyping was performed using primers B-GeoF-([…]; SEQ ID NO: 1) and B-GeoR-([…]; SEQ ID NO: 2) that are specific for the targeted allele and TcrdF-([…]; SEQ ID NO: 3) and TcrdR-([…]; SEQ ID NO: 4) that control for sufficient DNA concentration. Real-time PCR using the same primers allows discrimination between the heterozygous and homozygous state for the targeted allele. Maxillary protrusion was evaluated by ten investigators blinded to genotype and they were asked to rate maxillary protrusion on radiographs as either large (2) or small (1). […] All experiments were performed using mouse protocols approved by the Animal Care and Committee of Johns Hopkins University School of Medicine. The mouse protocols used for this study are in accordance with the guidelines used by the NIH for mouse care and handling.
Every 6th brain section was selected and then blocked with 5% Bovine Serum Albumin (BSA) at room temperature followed by incubation with primary antibodies overnight at 4° C. Secondary antibodies were then applied for 1 hour at room temperature, after which sections were mounted onto microscope slides with Vectamount with DAPI (Vector Laboratories, Burlingame, Calif.). Primary antibodies included Doublecortin (DCX) (SC-8066, Santa Cruz Biotechnology, Dallas, Tex., 1:200 goat), trimethylated H3K4 (9727L, Cell Signaling Technology, Beverly, Mass., 1:500 rabbit), and Kmt2d H-300 (SC-292359, Santa Cruz Biotechnology, Dallas, Tex., 1:500 rabbit). Non-specific binding was not observed when sections were sequentially exposed to serum (or IgG when appropriate) from the same species as the primary antibody for each experiment (i.e. rabbit for KMT2D and H3K4me3 and goat for doublecortin), followed by the secondary antibody used for KMT2D and H3K4me3 (anti-rabbit) or doublecortin (anti-goat, FIG. 29).
The area of both the GCL and DCX+ cells was measured using the NS elements 2.0 software (Nikon, Tokyo, JPN). Normalized DCX area was calculated by measuring the DCX+ area of the GCL and setting the baseline (Kmt2d^+/+) fraction to 1. A Student t-test with significance value set at P<0.05 was used for comparison of DCX+ area referenced to GCL area between genotypes and treatment arms.

[3] = tested on: Kmt2d+/βGeo mouse model of Kabuki syndrome; assay: Morris water maze; type: in vivo; conditions: 10 mg/kg/day
From the text: Kmt2d^+/βGeo mice, also named Mll2Gt^(RRt024)Byg, were acquired from Bay Genomics (University of California). All experimental mice were on a mixed C57BL/6J and 129/SvEv background. Expected Mendelian ratios were observed when heterozygous animals were bred to wild-type. In heterozygous crosses, however, there was uniform embryonic lethality of homozygotes by ED12, the earliest developmental stage assayed. For treatment with AR-42, mice were orally gavaged daily with drug (Selleck Chemicals, Houston, Tex.) solubilized in vehicle (0.5% methylcellulose, 0.1% Tween-80, water) or with vehicle alone. Drug delivery information was kindly provided by Drs. […] For quantification of DCX positive cells, doses of 0, 5, 10 and 25 mg/kg/day were used. […] Maxillary protrusion was evaluated by ten investigators blinded to genotype and they were asked to rate maxillary protrusion on radiographs as either large (2) or small (1). […]
Mice were placed in a 1.1 meter diameter tank filled with room temperature water dyed with non-toxic white paint. […] Latency to reach the platform was measured during each trial. […] Average number of crossings of the platform's previous location was recorded. […] For all training and probe testing, data was recorded both manually and electronically with ANY-maze software (San Diego Instruments, San Diego, Calif.) when applicable. […]

CC(C)[C@H](C(=O)Nc1ccc(C(=O)NO)cc1)c1ccccc1 [AR-42]
dose at which Kmt2d+/βGeo MEFs achieve untreated wild-type levels of activity ([1]; Kmt2d+/βGeo MEFs): 5 µM
H3K4 trimethylation activity ([1]; Kmt2d+/βGeo cells (MEFs)): enhanced
H3K4me3 indicator activity in MEFs ([1]; both genotypes (Kmt2d+/+ and Kmt2d+/βGeo)): dose-dependent response
DCX expression ([2]; 10 mg/kg/day, older (5-6 months) Kmt2d+/βGeo mice): improved
DCX expression ([2]; 25 mg/kg/day, Kmt2d+/+ animals): reduced DCX expression
DCX expression ([2]; 25 mg/kg/day, Kmt2d+/βGeo mice): did not improve DCX expression
DCX expression in the GCL ([2]; 25 mg/kg/day, young (1-2 month) and old (5-6 month) mice, both genotypes): decreased DCX expression
neurogenesis (normalized DCX expression) ([2]; 5 and 10 mg/kg/day, 1-2 month old Kmt2d+/βGeo mice): dose-dependent increase in neurogenesis
DCX expression ([2]; 5 and 10 mg/kg/day, Kmt2d+/+ or Kmt2d+/βGeo, both age groups): preservation or restoration of DCX expression
frequency of platform crossing, probe trial [3]: improved performance; also recorded: normalized
escape latency during training, with versus without drug ([3]; Kmt2d+/βGeo animals): No significant difference
